Results from EP0045990A1, “Novel antibacterial and antiprotozoal derivatives, a process for the preparation thereof, and related pharmaceutical compositions” (Farmatis S.r.l., priority 1980, dated 1982).

Key:
Trichomonas Vaginalis = assay type: in vivo, humans
Experimental: The clinical investigation involved 42 patients, aged from 22 to 55, affected by vaginitis induced by Trichomonas Vaginalis.
The diagnosis was determined through bacterioscopic, cultural and May-Grunwald Giemsa examinations, which were repeated 3 days after the end of the treatment. The 42 Patients were splitted into 6 groups of 7 patients each.

[1] = solubility in solvents and water; assay type: physicochemical
Experimental: According to the present invention there is provided a compound of formula (I) in which R1 is -OCH3 and R is CH3, which is a crystalline yellow compound, which decomposes upon heating to 170°C, is soluble (1 : 100) in methanol and (1 : 30) in dimethylformamide, but insoluble in water.

[2] = half-life in animal (dog) and in man; conditions: in vivo
[3] = system: hepatic glutatione-S-transferase; experiment: activity of hepatic glutathione-S-transferase
[4] = treated orally (1st, 2nd, 3rd, 4th groups)

Row | SMILES | complete recovery (Trichomonas Vaginalis; 5th group, treated only locally) [%] | Trichomonas vaqinalis disappeared, number of patients (Trichomonas Vaginalis; 5th group, treated only locally, 3 vaginal tablets of 200 mg per day for 5 days) | positive results (Trichomonas Vaginalis; 6th group, treated both orally and locally) [%] | activity against Trichomoniasis (Trichomonas Vaginalis; 42 patients) | tolerance in patients (Trichomonas Vaginalis; human, in vivo, po) | complete success (Trichomonas Vaginalis; [4]) [%] | complete success, number of patients (Trichomonas Vaginalis; [4]) | solubility in water [1] | half-life [2] [min] | activity of the hepatic glutatione-S-transferase [3]
1 | COc1ccc(OC(=O)CCC(=O)Nc2nccc(C=Cc3ncc([N+](=O)[O-])n3C)n2)c(C(C)(C)C)c1 [p-methoxy-o-tert-butyl-phenol ester of 5-nitro-imidazolyl-2-ethenyl-(2-amino-pyrimidyl)-N-succinic acid] | 85 | 6 out of 7 patients | 100 | highly active | well tolerated | 98 | 25 patiens out of 28 | insoluble |  | 
2 | Cc1ncc([N+](=O)[O-])n1CCO [metronidazole, 1-(2-hydroxyethyl)-2-methyl-5-nitro-imidazole] |  |  |  |  |  |  |  |  | 438 | does not exert this action
